Patent publication US9642854B2, “Flavanoid compounds and process for preparation thereof” (Council of Scientific & Industrial Research, priority 2009, dated 2017)
“Also recorded” adds a separate entry of the source.

Columns and labels:
[1] = tested on: H. pylori ATCC 43504; assay: Transmission electron microscopy of morphological transformation; type: cell-based, Helicobacter pylori; settings: 24 h
From the text: The morphological alteration of H. pylori cells (ATCC® 43504) exposed to various concentrations of CPP-1 was further examined using transmission electron microscopy (Dai et al., 2005). […] Samples were dehydrated, embedded in SPUR, sections cut and applied to copper grids. The grids were contrasted with uranyl acetate and lead citrate and the sections were examined on a transmission electron microscope.

[2] = tested on: gastric parietal cell; assay: Basal acid secretion in gastric parietal cell ([14C]-aminopyrine uptake ratio); type: cell-based, rabbit
Protocol: Dose-dependent inhibition of aminopyrine (AP) uptake ratio in parietal cell suspension after CPP-1 treatment was measured.
(§1) Parietal cells (PC) were isolated from New Zealand White rabbits (weighing ^˜2.5 kg) essentially according to Berglindh (1984) and as modified by Mazzeo et al. (1988). The PC preparations were nearly 90% pure and viable. The effect of CPP-1 on basal and histamine stimulated acid secretion in parietal cells was examined as follows. The PC suspension was incubated for 10 min at 37° C. with gentle stirring and continuous slow top gassing with oxygen. The [^14C]-aminopyrine (115 mCi/mmole) was added to the suspension at […], and incubation was continued for another 10 min. One-milliliter aliquot of PC (^˜5×10^6 cells) was added to various concentrations of CPP-1 in the presence and the absence of histamine (0.1 mM) and incubated for 20 min at 37° C. with slow shaking and oxygen top gassing. At the end of the incubation, the PC suspensions were centrifuged, supernatant carefully aspired off and the pellets solubilized in scintillation fluid containing Triton X-100. The resulting solution was counted in a liquid scintillation counter. The aminopyrine accumulation was determined as the ratio of intra- to extracellular aminopyrine according to Mazzeo et al. (1988).

[3] = tested on: H. pylori clinical strain HP001; assay: Acridine orange fluorescence microscopy of morphological transformation; type: cell-based, Helicobacter pylori; settings: 24 h
Protocol: Acridine orange fluorescence microscopic evidence is provided. The details of experimental procedures are provided under Experiment 9.
For the purpose of fluorescence staining, a bacterial smear was prepared, fixed with methanol for 2 min, stained with 0.1% acridine orange solution for 2-3 min, rinsed thoroughly with distilled water (Haqqani, 2001) and observed under fluorescence microscopy using 1-3 filter (emission wavelength 510 nm). The live organism appeared as orange color in the dark background and the non-viable cells as green (Shirai et al., 2000).

[4] = molecular target: T1, pig gastric H^+,K^+-ATPase (Sus scrofa, UniProt P19156); assay: Gastric H+,K+-ATPase activity assay; type: biochemical
T1 construct: tubulovesicular and apical membranes, isolated from freshly slaughtered pig gastric mucosa; from tissue; host or cells: pig gastric mucosa (membrane fraction by density gradient centrifugation)
T1 sequence (P19156 2-1034 limits assumed): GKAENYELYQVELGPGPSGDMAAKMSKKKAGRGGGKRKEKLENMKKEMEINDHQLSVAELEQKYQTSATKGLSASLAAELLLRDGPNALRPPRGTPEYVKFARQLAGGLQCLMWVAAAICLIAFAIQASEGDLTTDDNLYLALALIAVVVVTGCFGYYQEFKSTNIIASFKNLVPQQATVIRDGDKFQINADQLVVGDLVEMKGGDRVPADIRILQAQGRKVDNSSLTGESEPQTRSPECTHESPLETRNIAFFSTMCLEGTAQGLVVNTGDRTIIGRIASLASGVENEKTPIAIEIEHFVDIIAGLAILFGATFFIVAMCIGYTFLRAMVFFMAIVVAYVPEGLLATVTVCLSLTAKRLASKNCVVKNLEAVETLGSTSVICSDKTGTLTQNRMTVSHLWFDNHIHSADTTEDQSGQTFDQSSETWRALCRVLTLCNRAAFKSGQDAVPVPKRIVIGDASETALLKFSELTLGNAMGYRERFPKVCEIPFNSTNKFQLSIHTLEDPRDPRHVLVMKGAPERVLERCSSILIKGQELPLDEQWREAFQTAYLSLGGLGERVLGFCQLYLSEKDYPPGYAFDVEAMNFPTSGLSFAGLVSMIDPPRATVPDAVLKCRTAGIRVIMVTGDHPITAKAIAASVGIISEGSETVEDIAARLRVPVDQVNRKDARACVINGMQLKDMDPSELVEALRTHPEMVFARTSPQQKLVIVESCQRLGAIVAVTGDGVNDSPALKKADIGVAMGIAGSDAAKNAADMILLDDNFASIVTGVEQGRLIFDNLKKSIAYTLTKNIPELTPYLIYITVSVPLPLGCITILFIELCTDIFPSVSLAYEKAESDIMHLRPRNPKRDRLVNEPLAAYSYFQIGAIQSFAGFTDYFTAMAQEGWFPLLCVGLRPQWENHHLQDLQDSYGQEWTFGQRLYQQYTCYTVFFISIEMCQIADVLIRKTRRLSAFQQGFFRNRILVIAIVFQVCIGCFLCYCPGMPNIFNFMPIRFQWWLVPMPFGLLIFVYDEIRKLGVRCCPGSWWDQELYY
T1 sequence (P18434 whole entry partner): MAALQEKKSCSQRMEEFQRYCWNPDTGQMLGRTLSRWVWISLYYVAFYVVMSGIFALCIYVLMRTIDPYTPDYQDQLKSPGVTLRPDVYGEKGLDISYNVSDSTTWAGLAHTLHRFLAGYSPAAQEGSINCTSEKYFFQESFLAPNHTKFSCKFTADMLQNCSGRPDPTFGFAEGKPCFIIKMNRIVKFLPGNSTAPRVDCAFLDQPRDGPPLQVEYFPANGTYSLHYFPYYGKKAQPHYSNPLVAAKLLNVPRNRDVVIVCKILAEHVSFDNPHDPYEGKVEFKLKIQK
Protocol: The data are averages of 3-4 determinations each carried out in triplicate. The assay system contained 10 mM PIPES-Tris (pH 6.8), 2 mM each of ATP and MgCl2 with or without 10 mM KCl and about […] in a final volume of 1 mL. Both blank and experimental tubes with or without CPP-1 at different concentrations were preincubated with otherwise complete assay mixture at 37° C. for 10 min before initiating the reaction with the substrate ATP. K^+-stimulated activity referred to as H^+,K^+-ATPase activity, was calculated as the difference between the activity in presence of Mg^2+ plus K^+ and the basal activity (Mg^2+-ATPase) in presence of Mg2^+ alone. The specific activity of H^+,K^+-ATPase in control sets was in the range of 40-50 μmole Pi/mg protein/h.
The effect of CPP-1 on gastric H^+K^+-ATPase was investigated. Isolation of pig gastric mucosal membranes, rich in H^+,K^+-ATPase activity, was carried out by density gradient centrifugation technique (Ray, 1978). The enzyme assay system contained 10 mM PIPES-Tris (pH 6.8), 2 mM each of ATP and MgCl with or without 10 mM KCl and about […] in a final volume of 1 mL. Both blank and experimental tubes with or without CPP-1 at different concentrations were preincubated with otherwise complete assay mixture at 37° C. for 10 min before initiating the reaction with the substrate ATP. After appropriate time of incubation with ATP at 37° C., the reaction was terminated with the addition of 1 mL of ice-cold TCA (14%, w/v). The liberated inorganic phosphate (Pi) was estimated essentially by the method of Sanui (1974). K^+-stimulated activity referred to as H^+,K^+-ATPase activity, was calculated as the difference between the activity in presence of Mg^2+ plus K^+ and the basal activity (Mg^2+-ATPase) in presence of Mg^2+ alone. The specific activity of H^+,K^+-ATPase was expressed as micromoles of Pi liberated per hour per milligram protein. The data are averages of 3-4 determinations each carried out in triplicate. The specific activity of H^+,K^+-ATPase in control sets was in the range of 40-50 μmole Pi/mg protein/h.

[5] = tested on: gastric parietal cell; assay: Histamine-stimulated acid secretion in gastric parietal cell ([14C]-aminopyrine uptake ratio); type: cell-based, rabbit; settings: histamine 0.1 mM
Protocol: Dose-dependent inhibition of histamine-stimulated aminopyrine (AP) uptake ratio in parietal cell suspension after CPP-1 treatment was measured.
as §1

[6] = tested on: H. pylori; assay: Time kill kinetic analyses in biphasic culture; type: cell-based, Helicobacter pylori
[7] = tested on: Swiss albino mice; assay: Acute toxicity evaluation in mice; type: in vivo; settings: up to 0.5 g/kg body weight orally, 15 days observation
From the text: Five animals of Swiss albino mice strain were used for this purpose. The dosage up to 0.5 g/kg body weight given orally per mice and the animals were kept for 15 days under observation. It was observed that the mice were not affected at the dose level of 0.5 g/kg body weight of CPP-1.

In the case of `O=c1cc(-c2ccccc2)oc2cc(OCCCCCCN3CCCCC3)cc(O)c12` [CPP-1, 5-Hydroxy-2-phenyl-7-(6-piperidin-1-yl-hexyloxy)-chromen-4-one], the “morphological alteration (transmission electron microscope)” value ([1]; 6.25 μg/mL) is reported as “only few bacteria with intact shape and structure”, the “morphological alteration (transmission electron micrographs)” value ([1]; 6.25 or […]) is reported as “induced swelling and vacuole like structures in the cytoplasm of H. pylori cells” and the “morphological alteration (transmission electron microscope)” value ([1]; […]) is reported as “most cells were found to be progressively swollen and destroyed”. For the same compound, the IC50 ([2]; Oryctolagus cuniculus, rabbit gastric parietal cell, aminopyrine uptake ratio) was ~5 µg/mL, the “fold less potent than omeprazole in inhibiting basal acid secretion” value ([2]; parietal cells) was 2-3 fold and the “potency relative to cimetidine, basal acid secretion” value ([2]; parietal cells) was “much more potent than cimetidine”. For the same compound, the “morphological alteration (fluorescence microscopy)” value ([3]; 3.125 mg/mL (so in the source)) was “resembled almost like control with some deformation”, the “morphological alteration (fluorescence microscopy)” value ([3]; 6.25 and […] (so in the source)) was “progressively deteriorating cell population leading to more of non-viable cells (green fluorescence) and coccid formation” and the IC50 [4] was 23.7 µM. For the same compound, the “Percent inhibition of H^+, K^+-ATPase activity” value ([4]; 1 mg/assay (so in the source)) was 20%, the “Percent inhibition of H^+, K^+-ATPase activity” value ([4]; 5 mg/assay (so in the source)) was 30% and the “inhibition of H^+,K^+-ATPase” value ([4]; dose range of 1-10 μg/assay) was 10-50%. For the same compound, the IC50 ([5]; Oryctolagus cuniculus, rabbit gastric parietal cell) was ~15 µg/mL, the “activity relative to cimetidine, histamine-stimulated secretion” value [5] was “more active than cimetidine” and the “fold less potent than omeprazole in inhibiting histamine-stimulated secretion” value [5] was “about 5 fold”. The “decrease in cell count within 36 h” value ([6]; ATCC 43504, 0.5×MIC (3.125 μg/mL)) was “f-log decrease in cell count”, the “time to complete killing” value ([6]; ATCC 43504, 1×MIC (6.25 μg/mL)) was ≤ 36 h and the “time at which killing/inhibition became evident” value ([6]; HP001, biphasic culture) was ≤ 6 h. The “killing at MIC dose (1×MIC)” value ([6]; HP001, up to 36 h) was “not high enough to produce total bactericidal activity” and the mortality [7] was “did not show any mortality; also recorded: No mortality and behavioral abnormality was noted”.
